In publication PMC10664145, “Urinary Excretion of Mercapturic Acids of the Rodent Carcinogen Methyleugenol after a Single Meal of Basil Pesto: A Controlled Exposure Study in Humans” (Chemical Research in Toxicology, 2023):
Values joined by “and” are separate entries in the source; they are usually repeats but may differ in a detail not shown here. Equal entries are not always repeated.

How the values were obtained:
human CYPs = conditions: cited from earlier work
[1] = human, in vivo; cited from earlier work
[2] = rat, in vivo
Procedure: The metabolism of ME and its isomer, MIE, was also studied in rats in vivo.[27] Urine collected over a period of 24 h after oral administration of ME (200 mg/kg) contained a total of ten metabolites (each accounting for ≥1% of the dose); together, they represented 95% of the dose. Among the microsomal metabolites described in the preceding sections, only 6-hydroxy-ME was detected in native urine (2% of the dose). In human liver microsomes, it contributed 0–3.4% to the metabolism of ME, less than that in liver microsomes from other species [calculated from data published by Cartus et al.[11] and Al-Subeihi et al.[26]]. For this reason, and as 6-hydroxy-ME is not involved in bioactivation, it is not suited as a biomarker. Eugenol and chavibetol were found in urine treated with glucuronidase/sulfatase at levels of 7 and 4% of the dose, respectively. Obviously, these metabolites are not suited as biomarkers for exposure to ME, as they may also be found after exposure to eugenol and chavibetol. […] Although in this study, 95% of the dose of ME was recovered as metabolites in urine, metabolites were additionally detected in bile. […] Glutathione (GSH) conjugates and other metabolites of the mercapturic acid pathways were not detected in that study; however, the method used (extraction of the acidified urine or bile with ether followed by gas chromatography) was not suitable for their detection.

[3] = test system: primary cultures of rat hepatocytes; conditions: cited from earlier work
DNA [4] = conditions: cited from earlier work
[5] = cited from earlier work; for urinary metabolite of ME in urine treated with glucuronidase/sulfatase, share of the dose / urinary metabolite of ME, share of the dose: rat urine 24 h after oral ME 200 mg/kg
human topoisomerase I = test system: human topoisomerase I; parameters: method as in PMID 26542539; conditions: cited from earlier work
[6] = range over 12 experimental settings; ME 100, 200 or 500 μM; calculated from published data, molar units; cited from earlier work
[7] = Controlled exposure study in humans: urinary excretion of E-3′-MEMA after a meal with 100 g basil pesto (1.7 mg ME), isotope-dilution LC–MS/MS; format: in vivo, human
Procedure: Based on the findings of the pilot investigation, a more comprehensive (“main”) exposure study was performed. The study was conducted according to the guidelines of the Declaration of Helsinki and was approved by the ethics committee of the University of Potsdam under application number 4/2019. It was carried out at the Institute of Nutritional Science (University of Potsdam), where 12 healthy volunteers (six men and six women) with conventional nutrition habits were recruited. All participants gave written informed consent. The mean age of the test group was 31.6 ± 4.6 years (range: 25–42 years), and the mean body weight was 76.4 ± 10.0 kg (range: 61–94 kg). To guarantee that urinary excretion of MEMA was solely attributed to the consumption of the basil pesto served, all volunteers were asked to avoid ME-containing food 2 days before and after the consumption of the study meal. Therefore, they received an information sheet specifying potential ME sources. After overnight fasting, the participants consumed a meal comprising 100 g of self-made pesto containing 30 g of basil (equal to 1.7 mg of ME; recipe see Table S2) and 200 g of pasta. No further restrictions were exerted. To ensure proper urine sampling, the volunteers were encouraged to drink beverages as they preferred. Urine was collected quantitatively in capped polyethylene containers prior to the controlled exposure and during the following intervals: 0–1, 1–2, 2–3, 3–4, 4–5, 5–6, 6–8, 8–10, 10–12, 12–24, 24–36, and 36–48 h. After the volumes were measured, the urine was aliquoted in two 15 mL reaction tubes per time interval and stored at −20 °C until analysis.
“System 2” was configured as follows: an HPLC 1100 (Agilent Technologies) was connected to a QTrap6500 triple quadrupole-hybrid ion trap mass spectrometer (Sciex, Darmstadt, Germany) equipped with an electrospray ionization source operating in negative mode. The chromatographic separation of the analytes was performed by ion pair chromatography on a Nucleoshell RP 18plus column (2.0 × 150 mm, 2.7 μm; Macherey-Nagel). The eluents were water containing 10 mM tributylamine and 10 mM acetic acid (eluent A) and acetonitrile (eluent B). The flow rate of the gradient (0 → 1 min: 2% eluent B; 1 → 8 min: 2 → 15% eluent B; 8 → 17.5 min: 15 → 35% eluent B; 17.5 → 18 min: 35 → 100% eluent B; 18 → 20 min: 100% eluent B; 20 → 20.1 min: 100 → 2% eluent B; 20.1 → 23 min: 2% eluent B) was 0.5 mL/min. […] The MRM mode was employed for quantitative analysis with the declustering potential and the entrance potential at −30 and −10 V, respectively. For the quantifier mass transitions of E-3′-MEMA (m/z 338.1 → 209.1) and d6-E-3′-MEMA (m/z 344.1 → 215.1), a collision energy of −20 V and a cell exit potential of −5 V were used. […]

SULT1A1 = test system: SULT1A1; parameters: method as in PMID 22337896; conditions: cited from earlier work
[8] = range over five models (male and female Sprague–Dawley and Fischer 344 rats, pooled human); cited from earlier work
[9] = parameters: method as in PMID 22445790; conditions: cited from earlier work
[10] = parameters: method as in PMID 22610610, PMID 22445790; conditions: calculated from published data; cited from earlier work
[11] = n = 1; cited from earlier work
DNA [12] = conditions: cited from earlier work; remark: listed apart in the source

Structure (SMILES): C=CCc1ccc(OC)c(OC)c1 [ME, Methyleugenol]
- contribution of 1′-hydroxylation to hepatic ME metabolism at low substrate concentration (human CYPs): 38.4%
- contribution of 2′,3′-epoxidation to hepatic ME metabolism at low substrate concentration (human CYPs): 58.8%
- half-life of elimination of ME from serum [1]: about 90 min
- time of peak serum levels of ME after the meal [1]: 5 min
- share of the dose of ME converted via 1′-sulfooxy-ME to 3′-hydroxy-MIE (suggested) [2]: 14.3–41.7%
- induction of UDS by ME in the presence of the SULT1 inhibitor pentachlorophenol [3]: fully suppressed
- reduction of DNA adduct formation by ME in mouse liver by genetic knockout of SULT1A1 (DNA [4]; mouse, in vivo): 99%

Structure (SMILES): C=CCc1ccc(O)c(OC)c1 [Eugenol, eugenol]
- urinary metabolite of ME in urine treated with glucuronidase/sulfatase, share of the dose [5]: 7 % of the dose

Structure (SMILES): COc1ccc(CC(O)C(=O)O)cc1OC (stereo not drawn) [2-hydroxy-3-(3,4-dimethoxyphenyl)propionic acid]
- urinary metabolite of ME, share of the dose [5]: 20 % of the dose

Structure (SMILES): COc1ccc(C(O)CC(=O)O)cc1OC (stereo not drawn) [3-hydroxy-3-(3,4-dimethoxyphenyl)propionic acid]
- urinary metabolite of ME, share of the dose [5]: 2 % of the dose

Structure (SMILES): COc1ccc(/C=C/C=O)cc1OC [3′-oxo-MIE]
- effect on human topoisomerase I activity in vitro (human topoisomerase I): inhibit
- contribution of the metabolite to the metabolism of ME (sum of all metabolites) [6]: 0–6.8%

Structure (SMILES): COc1ccc(C=CCSC[C@H](NC(C)=O)C(=O)O)cc1OC [E-3′-MEMA, N-acetyl-S-[3′-(3,4-dimethoxyphenyl)allyl]-L-cysteine]
- total amount of E-3′-MEMA excreted, range among 12 participants ([7]; 1.7 mg ME in basil pesto): 3–274 ng/person
- interindividual variability of E-3′-MEMA excretion, factor between highest and lowest values ([7]; 12 participants): ~80
- E-3′-MEMA ratio of ME intake ([7]; individual participant, urine 0–48 h after 100 g basil pesto containing 1.7 mg ME): 33 ppm and 20 ppm and 85 ppm and 14 ppm and 1 ppm and 2 ppm and 4 ppm and 16 ppm and 6 ppm and 11 ppm
- E-3′-MEMA total urinary excretion ([7]; individual participant, urine 0–48 h after 100 g basil pesto containing 1.7 mg ME, sum of all samples with concentration > LOD): 105 ng and 63 ng and 274 ng and 44 ng and 3 ng and 6 ng and 12 ng and 51 ng and 18 ng and 36 ng and 20 ng and 52 ng

Structure (SMILES): COc1ccc(C(=O)O)cc1OC [3,4-dimethoxybenzoic acid]
- urinary metabolite of ME, share of the dose [5]: 2 % of the dose

Structure (SMILES): C=CC(O)c1ccc(OC)c(OC)c1 (stereo not drawn) [1′-hydroxy-ME]
- efficiency of human SULT1A1 in activation to a mutagen relative to its mouse orthologue (SULT1A1): about 3 times
- contribution of the metabolite to ME metabolism calculated from Vmax values [8]: 36.2–50.1%
- catalytic efficiency of glucuronidation, factor lower in human than in male rat liver microsomes [9]: 125 times
- contribution of the metabolite to the metabolism of ME (sum of all metabolites) [6]: 36.4–69.4%
- DNA adduct levels in mice carrying a human SULT1A1–1A2 transgene compared to wild-type mice (DNA [4]): nine times higher
- potency in induction of hepatomas and formation of DNA adducts in mouse liver, compared with ME (DNA [4]): more potent than ME

Structure (SMILES): COc1ccc(C=CC(=O)NCC(=O)O)cc1OC [3,4-dimethoxycinnamoylglycine]
- urinary metabolite of ME, share of the dose [5]: 24 % of the dose

Structure (SMILES): C=CCc1cc(OC)c(OC)cc1O [6-hydroxy-ME]
- contribution of the metabolite to ME metabolism calculated from Vmax values [8]: 3.9–4.7%
- urinary metabolite of ME, share of the dose [5]: 2 % of the dose
- contribution of 6-hydroxy-ME to the metabolism of ME in human liver microsomes [10]: 0–3.4%
- contribution of the metabolite to the metabolism of ME (sum of all metabolites) [6]: 0–27.4%

Structure (SMILES): C=CCc1ccc(OC)c(O)c1 [chavibetol]
- urinary metabolite of ME in urine treated with glucuronidase/sulfatase, share of the dose [5]: 4 % of the dose

Structure (SMILES): COc1ccc(C=CCSC[C@H](NC(C)=O)C(=O)O)cc1 [mercapturic acid of estragole, N-acetyl-S-[3′-(4-methoxyphenyl)allyl]-L-Cys]
- urinary excretion of the mercapturic acid as share of intake [11]: 13.2 ppm

Structure (SMILES): COc1ccc(CC(O)CO)cc1OC (stereo not drawn) [2′,3′-dihydroxy-2′,3′-dihydro-ME]
- contribution of the metabolite to ME metabolism calculated from Vmax values [8]: 21.8–44.0%

Structure (SMILES): Cc1ccc(CC(=O)O)cc1C [3,4-Dimethylphenylacetic acid]
- urinary metabolite of ME, share of the dose [5]: 3 % of the dose

Structure (SMILES): COc1ccc(C=CCO)cc1OC [3′-hydroxy-MIE, 3′-hydroxymethylisoeugenol]
- contribution of the metabolite to ME metabolism calculated from Vmax values [8]: 10.3–12.9%
- share of the dose excreted as urinary metabolites that appeared to be formed via 3′-hydroxy-MIE ([5]; rats, ME 200 mg/kg): 62 % of the dose
- share of the urinary metabolites that appeared to be formed via 3′-hydroxy-MIE ([5]; rats, ME 200 mg/kg): 65%
- contribution of the metabolite to the metabolism of ME (sum of all metabolites) [6]: 10.4–42.4%

Structure (SMILES): COc1ccc(C=CCNc2nc3c(ncn3[C@H]3C[C@H](O)[C@@H](CO)O3)c(=O)[nH]2)cc1OC [N^2-(methylisoeugenol-3′-yl)-2′-deoxyguanosine]
- human lung samples with DNA adducts present (DNA [12]): 10 out of 10
- human liver samples with DNA adducts present (DNA [12]; surgical human liver samples): 150 out of 151

Structure (SMILES): COc1ccc(C(=O)NCC(=O)O)cc1OC [3,4-dimethoxybenzoylglycine]
- urinary metabolite of ME, share of the dose [5]: 30 % of the dose
